Test system: Male SHR rats on 2.2% salt diet
Assay: Effect of VIP/VIP fragment infusion on aortic fibrosis in rat model of fibrosis
Type: in vivo
Conditions: 4 weeks intravenous infusion at 5 pmol/kg/min by osmotic minipump, vs vehicle control, fibrosis quantified as percent surface area
From the text: Two animal models of aortic fibrosis were used (animals obtained from Australian Animal Resources, Perth, Western Australia, Australia)
i) Male SHR rats on 2.2% salt diet
In each model the rats were randomised to VIP (1-28), VIP (4-12), VIP (4-16), VIP (4-10), VIP (4-20), VIP (4-24), VIP (10-28), VIP (16-20), VIP (16-24), VIP (16-28), VIP (6-10), VIP (6-12), VIP (6-16), VIP (6-20), VIP (6-24), and VIP (6-28). All peptides were obtained from or synthesised by Auspep, Australia. VIP fragments were dissolved in Hartman's solution for subsequent infusion studies. Commencing at 12 weeks of age, the rats were acclimatized to tail cuff blood pressure measurements and handling for 2 weeks. They then underwent operative insertion of an osmotic minipump (Alzet) which was designed to deliver vehicle alone (Hartman's solution, (Baxter Health Care Corporation)-(Controls)) or VIP, VIP fragment at a dose of 5 pmol/kg/min intravenously.
The infusion was continued for 4 weeks, during which the rats were weighed and their blood pressures measured twice weekly. […]
For quantitation of aortic fibrosis, twenty fields from each aorta were digitized and the amount of fibrosis in each determined as percent surface area using Image-Pro Plus V5.0 software. The mean value for each rat and subsequently for each infusion group was then determined.

His-Ser-Asp-Ala-Val-Phe-Thr-Asp-Asn-Tyr-Thr-Arg-Leu-Arg-Lys-Gln-Met-Ala-Val-Lys-Lys-Tyr-Leu-Asn-Ser-Ile-Leu-Asn (HSDAVFTDNYTRLRKQMAVKKYLNSILN; listed as Homo sapiens) [VIP]
aortic fibrosis (fibrosis within the aortic wall): reductions in aortic fibrosis

Source: patent US8729020B2, “Methods for the treatment of aortic fibrosis with VIP fragments” (Vectus Biosystems Pty Ltd, priority 2009, dated 2014)
